{"source": "patent US20210379042A1", "about": "“METHODS FOR MONITORING TUMOR LYSIS SYNDROME” (Sumitomo Dainippon Pharma Oncology, Inc., priority 2018, published 2021)", "key": {"[1]": {"conditions": "statement without data; prodrugs described in WO 2016/187316 and WO 2018/094275; cited from earlier work"}, "[2]": {"tested_on": "patients having newly diagnosed AML", "assay": "Example 5: alvocidib plus daunorubicin/cytarabine (ACD) with TLS monitoring, treatment-emergent adverse events classified as TLS", "assay_type": "in vivo, human", "description": "This study will evaluate the safety and efficacy of alvocidib in combination with cytarabine/daunorubicin (7+3) in patients with newly diagnosed AML. Treatment consists of increasing dose levels of alvocidib starting at 20 mg/m^2 as a 30-minute IV bolus followed by 30 mg/m^2 over 4 hours on days 1-3, cytarabine 100 mg/m^2/day by continuous IV infusion on days 5-11, followed by (e.g., followed about 30 minutes later by) daunorubicin 60 mg/m^2 IV on days 5-7. Reinduction therapy with alvocidib (same dose as induction) days 1-3, followed by cytarabine 100 mg/m^2/day continuous IV on days 5-9, and daunorubicin 45 mg/m^2 IV days 5-6 is recommended in patients with >10% and >5% cellularity and blasts, respectively.\nFor patients at high risk for TLS, including those with risk scores of greater than or equal to 2 according to Table 1, those with monocytic leukemia phenotype, or those with a history of FLT3 positive AML, monitoring will include: (i) obtaining a STAT serum potassium at the end of an alvocidib infusion; (ii) obtaining a serum potassium 2 hours after the end of an alvocidib infusion, (iii) obtaining a full TLS panel 4 hours after the end of an alvocidib infusion, and (iv) monitoring fibrinogen levels at baseline and then as clinically indicated. If there is evidence of clinically meaningful TLS, a TLS panel will be obtained every 2 hours during the first 24 hours after the end of an alvocidib infusion (assessment of LDH levels at least once every 24 hours is also recommended). If there is no evidence of clinically meaningful TLS, a TLS panel will be obtained every 4 hours during the first 24 hours after the end of an alvocidib infusion (assessment of LDH levels at least once every 24 hours is also recommended). If, after the first 24 hours after the end of an alvocidib infusion, there is no evidence of TLS, a TLS panel will be obtained approximately every 6 hours for the remainder of alvocidib treatment, and then every 12 hours after completion of alvocidib during daunorubicin and cytarabine treatment (assessment of LDH levels at least once every 24 hours is also recommended).\nFor patients not at high risk for TLS, tumor lysis evaluations will be monitored at the start of alvocidib treatment and approximately every 4 hours thereafter for 24 hours. Laboratory studies during this period will be run as a “STAT” to ensure the results are available in a timely manner. If there is no evidence of TLS during first the 24 hours, then tumor lysis evaluations will be monitored approximately every 6-8 hours for the remainder of alvocidib treatment, and then every 12 hours after the completion of alvocidib during cytarabine and daunorubicin treatment. Fibrinogen levels will be monitored at baseline and then as clinically indicated.\nPatients were treated with ACD according to a treatment regimen similar to that described in Example 2, and monitored for TLS according to the monitoring protocols described in Example 2. Briefly, treatment consisted of increasing dose levels of alvocidib starting at 20 mg/m^2 as a 30-minute (±10 minutes) IV bolus followed by 30 mg/m^2 as a 4-hour (±15 minutes) IV infusion on days 1-3, followed by daunorubicin 60 mg/m^2 IV on days 5-7 via IV bolus of up to 15 minutes (±5 minutes) in duration each day, followed by (e.g., followed immediately by) cytarabine 100 mg/m^2/day by 24-hour (±2 hours) continuous IV infusion on days 5-11. Reinduction therapy with alvocidib (same dose as induction) days 1-3, followed by daunorubicin 45 mg/m^2 IV via IV bolus of up to 15 minutes (±5 minutes) in duration each day on days 5-6, followed by (e.g., followed immediately by) cytarabine 100 mg/m^2/day continuous, 24-hour IV infusion (±2 hours) on days 5-9, was recommended in patients with evidence of residual leukemia, defined as >5% bone marrow blasts plus >10% cellularity, based on day 14 (±3 days) bone marrow. […]"}, "[3]": {"tested_on": "cancer patients being treated with alvocidib", "assay": "Clinical trials using a TLS monitoring protocol described herein: deaths attributed to TLS", "assay_type": "in vivo, human", "conditions": "to date", "from_the_text": "Current protocols for monitoring the development of TLS in patients vary greatly due to interindividual clinician experience and different standards of care among institutions. The risk for and rapid development of TLS in cancer patients being treated with alvocidib presents a need for more precise but clinically practical TLS monitoring protocols that allow subjects to remain on alvocidib treatment and avoid dose-limiting TLS. To date, there have been no deaths attributed to TLS in clinical trials using a TLS monitoring protocol described herein."}, "[4]": {"conditions": "Study Total, all dose levels (N = 31)"}, "[5]": {"conditions": "alvocidib 30/40 mg/m^2 (bolus/infusion) days 1-3 with daunorubicin and cytarabine (N = 3)"}, "[6]": {"conditions": "alvocidib 30/60 mg/m^2 (bolus/infusion) days 1-3 with daunorubicin and cytarabine (N = 22)"}}}
{"compound": "CN1CC[C@H](c2c(OP(=O)(O)O)cc(O)c3c(=O)cc(-c4ccccc4Cl)oc23)[C@H](O)C1", "note": "[Ia]", "values": [{"measurement": "oral bioavailability", "setting": "[1]", "value": "orally bioavailable"}]}
{"compound": "CN1CC[C@H](c2c(O)cc(O)c3c(=O)cc(-c4ccccc4Cl)oc23)[C@H](O)C1", "note": "[Alvocidib, 2-(2-chlorophenyl)-5,7-dihydroxy-8-[(3 S,4R)-3-hydroxy-1-methylpiperidin-4-yl]chromen-4-one]", "values": [{"measurement": "Tumor lysis syndrome, treatment-emergent adverse events, number of patients", "setting": "[2]; [4]", "value": 8}, {"measurement": "Tumor lysis syndrome, treatment-emergent adverse events, percent of patients", "setting": "[2]; [4]", "value": 25.8, "unit": "%"}, {"measurement": "Tumor lysis syndrome, treatment-emergent adverse events, number of patients", "setting": "[2]; alvocidib 20/30 mg/m^2 (bolus/infusion) days 1-3 with daunorubicin and cytarabine (N = 3)", "value": 0}, {"measurement": "Tumor lysis syndrome, treatment-emergent adverse events, number of patients", "setting": "[2]; [5]", "value": 1}, {"measurement": "Tumor lysis syndrome, treatment-emergent adverse events, percent of patients", "setting": "[2]; [5]", "value": 33.3, "unit": "%"}, {"measurement": "Tumor lysis syndrome, treatment-emergent adverse events, number of patients", "setting": "[2]; alvocidib 30/50 mg/m^2 (bolus/infusion) days 1-3 with daunorubicin and cytarabine (N = 3)", "value": 0}, {"measurement": "Tumor lysis syndrome, treatment-emergent adverse events, number of patients", "setting": "[2]; [6]", "value": 7}, {"measurement": "Tumor lysis syndrome, treatment-emergent adverse events, percent of patients", "setting": "[2]; [6]", "value": 31.8, "unit": "%"}, {"measurement": "deaths attributed to TLS", "setting": "[3]", "value": "no deaths"}]}
